Consider ten compounds from US20240246948A1, “BENZAMIDE DERIVATIVE, METHOD FOR PREPARING SAME, AND PHARMACEUTICAL COMPOSITION FOR PREVENTION OR TREATMENT OF CANCER CONTAINING SAME AS ACTIVE INGREDIENT” (HK INNO.N CORPORATION, priority 2021, published 2024).

This assay deals with Ba/F3 EGFR L858R/T790M/C797S (LTC) (Homo sapiens, UniProt P00533, T790M/C797S/L858R, cells depend on it). As to the kind of experiment: Cell growth inhibitory ability in Ba/F3 cells overexpressing EGFR L858R/T790M/C797S (MTS, CellTiter 96 AQueous). The format is cell-based. The following applies: 72 hours, MTS absorbance at 490 nm, read-out: Ba/F3 EGFR triple mutant L858R/T790M/C797S, IC50. Here is the method: In order to confirm that the compound represented by formula 1 provided in one aspect of the present invention acts as an allosteric inhibitor against WT and mutant of EGFR, the cell growth inhibitory effect was evaluated in BaF3 cells overexpressing WT and mutant of EGFR.
Ba/F3 EGFR L858R/T790M/C797S (LTC), sequence (P00533 whole entry T790M/C797S/L858R): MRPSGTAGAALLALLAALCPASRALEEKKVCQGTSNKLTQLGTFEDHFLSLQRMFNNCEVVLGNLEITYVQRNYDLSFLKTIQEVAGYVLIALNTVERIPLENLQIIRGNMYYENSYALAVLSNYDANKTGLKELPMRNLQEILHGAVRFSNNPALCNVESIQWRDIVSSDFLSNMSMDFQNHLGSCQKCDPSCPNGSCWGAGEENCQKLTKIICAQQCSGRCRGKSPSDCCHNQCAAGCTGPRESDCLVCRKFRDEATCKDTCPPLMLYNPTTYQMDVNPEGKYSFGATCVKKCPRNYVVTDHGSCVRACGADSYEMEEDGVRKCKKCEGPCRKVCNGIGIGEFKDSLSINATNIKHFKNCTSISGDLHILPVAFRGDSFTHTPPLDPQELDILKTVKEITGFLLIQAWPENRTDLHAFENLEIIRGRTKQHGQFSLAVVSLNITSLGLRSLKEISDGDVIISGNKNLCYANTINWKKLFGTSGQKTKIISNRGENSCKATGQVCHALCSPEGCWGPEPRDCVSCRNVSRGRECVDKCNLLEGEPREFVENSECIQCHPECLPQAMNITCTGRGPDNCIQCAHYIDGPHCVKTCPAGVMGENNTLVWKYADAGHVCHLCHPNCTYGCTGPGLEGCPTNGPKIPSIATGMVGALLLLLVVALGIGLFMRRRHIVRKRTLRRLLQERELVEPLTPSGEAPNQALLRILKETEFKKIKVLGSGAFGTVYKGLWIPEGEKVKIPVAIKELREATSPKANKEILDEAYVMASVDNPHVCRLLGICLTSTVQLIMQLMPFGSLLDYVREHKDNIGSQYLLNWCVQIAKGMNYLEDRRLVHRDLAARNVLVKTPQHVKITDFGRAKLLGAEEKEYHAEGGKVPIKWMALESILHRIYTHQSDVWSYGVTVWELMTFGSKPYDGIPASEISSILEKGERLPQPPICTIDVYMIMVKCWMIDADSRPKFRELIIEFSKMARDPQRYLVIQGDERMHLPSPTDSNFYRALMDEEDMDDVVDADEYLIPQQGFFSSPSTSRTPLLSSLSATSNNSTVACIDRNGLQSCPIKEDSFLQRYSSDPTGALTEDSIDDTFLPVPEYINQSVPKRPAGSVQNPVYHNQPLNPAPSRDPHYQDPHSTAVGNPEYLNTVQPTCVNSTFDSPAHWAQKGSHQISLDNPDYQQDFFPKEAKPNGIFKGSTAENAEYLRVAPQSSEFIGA
More specifically, the cell growth inhibitory ability of the compound of the present invention to the Ba/F3 cell line overexpressing WT and mutant of EGFR was evaluated using CellTiter 96 AQueous Non-Radioactive Cell Proliferation Assay system of Promega, as follows. AQueous Non-Radioactive Cell Proliferation Assay is a method of confirming cell growth inhibitory ability by measuring the degree of color development by reducing MTS (3-(4,5-Dimethylthiazol-2-yl)-5-(3-carboxymethoxyphenyl)-2-(4-sulfophenyl)-2H-tetrazolium) to Formazan by a reductase secreted by mitochondria present in living cells in a cell culture state. The Ba/F3 EGFR WT and Ba/F3 EGFR del19/T790M/C797S (DTC), Ba/F3 EGFR L858R (L), Ba/F3 EGFR L858R/T790M (LT), and Ba/F3 EGFR L858R/T790M/C797S (LTC) mutation cell lines used in the present invention were purchased from the laboratory of Professor Byung-cheol Cho, Yonsei University. All cell lines were cultured in RPMI supplemented with 10% FBS, 1% penicillin-streptomycin and 1 μg/ml of puromycine in a 5% CO2 incubator at 37° C.
The cell survival inhibitory effect of the compound according to each EGFR mutation was analyzed by the following analysis method.
BaF3 cells were distributed in a 96-well cell culture plate at the density of 2000˜10000 cells/100 μL/well, and cultured for 24 hours. Thereafter, the concentration of the compound represented by formula 1 provided in one aspect of the present invention was prepared to double the final concentrations of 0.1 nM, 1 nM, 10 nM, 100 nM, 1000 nM and 10000 nM, and the compound was treated to the plate (100 μL/well). The plate was reacted in an incubator at 37° C. for 72 hours. Then, MTS was treated to the plate (20 μL/well) and the plate was incubated at 37° C. for 2 to 4 hours. Finally, after measuring the absorbance at 490 nm using a microplate reader, the relative value compared to 0 nM (% Control) was obtained to confirm the cell growth inhibitory ability of the compound. The measured values were analyzed using Prism program (version 8.0, Graphpad Software, Inc.), and the IC50 value (Inhibition concentration 50), an indicator of the cell growth inhibitory ability of the compound, was calculated.

As for `CNC1CCN(c2cnc(-c3cc(C)cc(C(=O)N[C@@H](c4cc5ccccc5[nH]4)c4cc(F)ccc4O)c3)nc2)CC1` [Example 54, (R)—N-((5-fluoro-2-hydroxyphenyl)(1H-indole-2-yl)methyl)-3-methyl-5-(5-(4-(methylamino)piperidine-1-yl)pyrimidine-2-yl)benzamide], the GI50 was under 30 nM.

Turning to `Cc1cc(C(=O)N[C@@H](c2cc3ccccc3[nH]2)c2cc(F)ccc2O)cc(-c2ncc(N3CCC(n4cccc4)CC3)cn2)c1` [Example 47, (R)-3-(5-(4-(1H-pyrrole-1-yl)piperidine-1-yl)pyrimidine-2-yl)-N-((5-fluoro-2-hydroxyphenyl)(1H-indole-2-yl)methyl)-5-methylbenzamide], the GI50 was over 200 nM.

`Cc1cc(C(=O)N[C@@H](c2cc3ccccc3[nH]2)c2cc(F)ccc2O)cc(-c2ncc(N3CC[C@@H](N(C)C)C3)cn2)c1` [Example 53, 3-[5-[(3R)-3-(dimethylamino)pyrrolidine-1-yl]pyrimidine-2-yl]-N—[(R)-(5-fluoro-2-hydroxy-phenyl)-(1H-indole-2-yl)methyl]-5-methyl-benzamide]: the GI50 is under 30 nM. Next, `Cc1cc(C(=O)N[C@@H](c2cc3ccccc3[nH]2)c2cc(F)ccc2O)cc(-c2ncc(N3CCC(CN4CCCC4)CC3)cn2)c1` [Example 52, (R)—N-((5-fluoro-2-hydroxyphenyl)(1H-indole-2-yl)methyl)-3-methyl-5-(5-(4-(pyrrolidine-1-ylmethyl)piperidine-1-yl)pyrimidine-2-yl)benzamide]: over 200 nM; `Cc1cc(C(=O)N[C@@H](c2cc3ccccc3[nH]2)c2cc(F)ccc2O)cc(-c2ncc(N3CCC(N4CCCCC4)CC3)cn2)c1` [Example 50, (R)-3-(5-([1,4′-bipiperidine]-1′-yl)pyrimidine-2-yl)-N-((5-fluoro-2-hydroxyphenyl)(1H-indole-2-yl)methyl)-5-methylbenzamide]: under 30 nM; `Cc1cc(C(=O)N[C@@H](c2cc3ccccc3[nH]2)c2cc(F)ccc2O)cc(-c2ncc(N3C4CCC3CN(C)C4)cn2)c1` [Example 46, N—((R)-(5-fluoro-2-hydroxyphenyl)(1H-indole-2-yl)methyl)-3-methyl-5-(5-(3-methyl-3,8-diazabicyclo[3.2.1]octane-8-yl)pyrimidine-2-yl)benzamide]: under 30 nM.

In the case of `Cc1cc(C(=O)N[C@@H](c2cc3ccccc3[nH]2)c2cc(F)ccc2O)cc(-c2ncc(N3CCC(C(=O)Nc4ccccc4)CC3)cn2)c1` [Example 55, (R)-1-(2-(3-(((5-fluoro-2-hydroxyphenyl)(1H-indole-2-yl)methyl)carbamoyl)-5-methylphenyl)pyrimidine-5-yl)-N-phenylpiperidine-4-carboxamide], the GI50 was over 200 nM. In the case of `COCCOc1ccc(N2CCN(c3cnc(-c4cc(C)cc(C(=O)N[C@@H](c5cc6ccccc6[nH]5)c5cc(F)ccc5O)c4)nc3)CC2)cc1` [Example 56, (R)—N-((5-fluoro-2-hydroxyphenyl)(1H-indole-2-yl)methyl)-3-(5-(4-(4-(2-methoxyethoxy)phenyl)piperazine-1-yl)pyrimidine-2-yl)-5-methylbenzamide], the GI50 was over 200 nM. Next, `Cc1cc(C(=O)N[C@@H](c2cc3ccccc3[nH]2)c2cc(F)ccc2O)cc(-c2ncc(N3CCC(n4cncn4)CC3)cn2)c1` [Example 48, (R)-3-(5-(4-(1H-1,2,4-triazole-1-yl)piperidine-1-yl)pyrimidine-2-yl)-N-((5-fluoro-2-hydroxyphenyl)(1H-indole-2-yl)methyl)-5-methylbenzamide]: 30 to 200 nM; `Cc1cc(C(=O)N[C@@H](c2cc3ccccc3[nH]2)c2cc(F)ccc2O)cc(-c2ncc(N3CCC(CN4CCOCC4)CC3)cn2)c1` [Example 51, (R)—N-((5-fluoro-2-hydroxyphenyl)(1H-indole-2-yl)methyl)-3-methyl-5-(5-(4-(morpholinomethyl)piperidine-1-yl)pyrimidine-2-yl)benzamide]: over 200 nM.
